Data set [1] has as its target T1, human Plasma Kallikrein (Homo sapiens (Human), UniProt P03952). Kind of data set: Human whole blood kallikrein inhibition (ellagic acid-activated human plasma, Z-FR-2-AMC substrate). It is filed as biochemical. In outline: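 Platelet-depleted human plasma was activated with ellagic acid and diluted in 50 mM Tris-HCl pH 7.2, 150 mM NaCl, 0.01% Triton X-100, then preincubated 15 min at 37 °C. Compounds (0.076 nM–20 μM, duplicates) were added for 5 min at 37 °C. Z-FR-2-AMC (40 μM final) was read kinetically at ex 330/em 440 nm for 60 min, and IC50 was taken from a variable-slope fit.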

Data set [2] addresses T1, human Plasma Kallikrein. The data set can be described thus: In vitro enzyme inhibition of human plasma kallikrein (Pro-Phe-Arg-AMC cleavage). It is filed as biochemical. Conditions: human plasma kallikrein, PFR-AMC substrate, 37° C.; read-out: hPK IC50. An outline of the steps:
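Human plasma kallikrein preincubated 5 min at 37 °C with compound in 50 mM Tris-HCl pH 7.5, 150 mM NaCl, 0.01% Triton X-100. Reaction started with Pro-Phe-Arg-AMC, fluorescence read every 43 s for 1 h at 37 °C. IC50 from highest mean velocity over 20 reads (~15 min).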

The nature of data set [3]: Pharmacokinetic evaluation, oral exposure in rats. Conditions: male Sprague-Dawley rats, single oral dose 10 mg/kg via oral gavage, plasma. It is filed as in vivo. On the procedure: Pharmacokinetic studies of select compounds were performed to assess the pharmacokinetic properties. Male Sprague-Dawley rats were administered a single oral dose of the test compound at 10 mg/kg (dose concentration: 2 mg/mL, dose volume: 5 ml/kg) via oral gavage. Blood samples were collected via jugular vein at pre-dose, post-dose 5 min, 15 min, 30 min, 1 h, 2 h, 4 h, 6 h, 8 h, 10 h and 24 h, and centrifuged (8000 rpm for 6 minutes at 2-8° C.). The resulting plasma fractions were analyzed by LC/MS/MS to determine the concentration of the test compound.

The mark [4] stands for this setting: human plasma activated with ellagic acid, Z-FR-2-AMC 40 μM, 37° C., read-out: HWB EC50.

Each structure is given as a SMILES string. Where two headings read alike, the source gives them in different places.

T1 sequence (P03952 391-638 limits assumed): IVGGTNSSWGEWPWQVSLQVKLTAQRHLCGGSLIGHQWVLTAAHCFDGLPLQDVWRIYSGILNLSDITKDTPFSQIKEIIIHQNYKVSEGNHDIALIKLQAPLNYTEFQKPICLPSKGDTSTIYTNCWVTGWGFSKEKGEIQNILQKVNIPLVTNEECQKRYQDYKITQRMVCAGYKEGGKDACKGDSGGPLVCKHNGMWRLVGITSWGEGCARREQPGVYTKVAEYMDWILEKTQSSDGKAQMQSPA
T1 sequence (P03952 20-390 partner limits assumed): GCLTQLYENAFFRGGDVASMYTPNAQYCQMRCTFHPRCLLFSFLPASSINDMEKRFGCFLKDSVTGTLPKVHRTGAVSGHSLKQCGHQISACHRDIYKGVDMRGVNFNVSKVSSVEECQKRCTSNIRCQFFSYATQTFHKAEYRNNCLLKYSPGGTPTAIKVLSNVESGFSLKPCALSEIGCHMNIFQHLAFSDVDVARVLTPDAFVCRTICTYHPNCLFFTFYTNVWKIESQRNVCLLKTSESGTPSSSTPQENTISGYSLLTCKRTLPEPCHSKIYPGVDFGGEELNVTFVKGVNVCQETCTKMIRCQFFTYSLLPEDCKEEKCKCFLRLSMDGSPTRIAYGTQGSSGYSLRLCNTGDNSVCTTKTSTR

`Cc1cc(N)nc(C)c1CNC(=O)c1cnn(Cc2ccc3ncc(Cl)cc3c2)c1` [Example 2, N-((6-amino-2,4-dimethylpyridin-3-yl)methyl)-1-((3-chloroquinolin-6-yl)methyl)-1H-pyrazole-4-carboxamide]: the EC50 (in general, the concentration at which the effect is half-maximal) at human Plasma Kallikrein [1] (setting [4]) is less than 100 nM. Also, on human Plasma Kallikrein [2], the IC50 (in general, the concentration needed to halve the response being measured) is less than 100 nM. For the same molecule, the area under the curve (AUC) (usually the area under the concentration-time curve, a measure of exposure) in data set [3] (rat, read-out: AUC) lay in the range of 100 to 1000 ng·h/mL.
`Cc1cc(N)nc(C)c1CNC(=O)c1nc(N)n(Cc2ccc3ncc(Cl)cc3c2)n1` [Example 20, 5-amino-N-((6-amino-2,4-dimethylpyridin-3-yl)methyl)-1-((3-chloroquinolin-6-yl)methyl)-1H-1,2,4-triazole-3-carboxamide]: at human Plasma Kallikrein [1] (setting [4]), the 50% effective concentration (EC50) is less than 100 nM. In addition, the IC50 at human Plasma Kallikrein [2] is less than 100 nM. Besides, the AUC in data set [3] (rat, read-out: AUC) is less than 100 ng·h/mL.
Turning to `Cc1cc(N)nc(C)c1CNC(=O)c1cn(Cc2ccc3ncc(Cl)cc3c2)c2cnccc12` [Example 16, N-((6-amino-2,4-dimethylpyridin-3-yl)methyl)-1-((3-chloroquinolin-6-yl)methyl)-1H-pyrrolo[2,3-c]pyridine-3-carboxamide], the half-maximal effective concentration (EC50) at human Plasma Kallikrein [1] is less than 100 nM. Also, the IC50 on human Plasma Kallikrein [2] was less than 100 nM. Further, in data set [3] (rat, read-out: AUC), the area under the curve (AUC) lay in the range of 100 to 1000 ng·h/mL.
For the molecule `Cc1cnc2ccc(Cn3cc(C(=O)NCc4c(C)cc(N)nc4C)c(C#N)n3)cc2c1` [Example 81, N-((6-amino-2,4-dimethylpyridin-3-yl)methyl)-3-cyano-1-((3-methylquinolin-6-yl)methyl)-1H-pyrazole-4-carboxamide], the EC50 on human Plasma Kallikrein [1] (setting [4]) is less than 100 nM. Moreover, the IC50 on human Plasma Kallikrein [2] was less than 100 nM. For the same molecule, in data set [3] (rat, read-out: AUC), the AUC was in the range of 100 to 1000 ng·h/mL.
Regarding `Cc1cc(N)nc(C)c1CNC(=O)c1oc(Cc2ccc3ncc(Cl)cc3c2)nc1C(F)(F)F` [Example 37, N-((6-amino-2,4-dimethylpyridin-3-yl)methyl)-2-((3-chloroquinolin-6-yl)methyl)-4-(trifluoromethyl)oxazole-5-carboxamide], the concentration for a half-maximal effect (EC50) on human Plasma Kallikrein [1] (setting [4]) was less than 100 nM. The concentration for half-maximal inhibition (IC50) on human Plasma Kallikrein [2] is less than 100 nM. Moreover, the AUC in data set [3] (rat, read-out: AUC) lay within 100 to 1000 ng·h/mL.
Turning to `Cc1cc(N)nc(C)c1CNC(=O)c1ncc(Cc2ccc3ncc(Cl)cc3c2)o1` [Example 31, N-((6-amino-2,4-dimethylpyridin-3-yl)methyl)-5-((3-chloroquinolin-6-yl)methyl)oxazole-2-carboxamide], the EC50 at human Plasma Kallikrein [1] (setting [4]) is less than 100 nM. Further, the IC50 on human Plasma Kallikrein [2] was less than 100 nM. In data set [3] (rat, read-out: AUC), the area under the curve (AUC) was in the range of 1000 to 10000 ng·h/mL.
In the case of `Cc1cc(N)nc(C)c1CNC(=O)c1nnc(Cc2cc(F)c3ncc(Cl)cc3c2)o1` [Example 75, N-((6-amino-2,4-dimethylpyridin-3-yl)methyl)-5-((3-chloro-8-fluoroquinolin-6-yl)methyl)-1,3,4-oxadiazole-2-carboxamide], the EC50 on human Plasma Kallikrein [1] (setting [4]) is less than 100 nM. Moreover, the half-inhibitory concentration (IC50) on human Plasma Kallikrein [2] was less than 100 nM. In addition, in data set [3] (rat, read-out: AUC), the area under the curve (AUC) was in the range of 1000 to 10000 ng·h/mL.
With `Cc1cc(N)nc(C)c1CNC(=O)c1nnc(Cc2ccc3ncc(Cl)cc3c2)o1` [Example 30, N-((6-amino-2,4-dimethylpyridin-3-yl)methyl)-5-((3-chloroquinolin-6-yl)methyl)-1,3,4-oxadiazole-2-carboxamide], the EC50 on human Plasma Kallikrein [1] (setting [4]) was less than 100 nM. Also, the IC50 on human Plasma Kallikrein [2] was less than 100 nM. For the same molecule, the area under the curve (AUC) in data set [3] (rat, read-out: AUC) was in the range of 1000 to 10000 ng·h/mL.
Molecule `Cc1cc(N)nc(C)c1CNC(=O)c1nn(Cc2ccc3ncc(Cl)cc3c2)c2ccccc12` [Example 13, N-((6-amino-2,4-dimethylpyridin-3-yl)methyl)-1-((3-chloroquinolin-6-yl)methyl)-1H-indazole-3-carboxamide] yielded an EC50 on human Plasma Kallikrein [1] of less than 100 nM. In addition, on human Plasma Kallikrein [2], the IC50 is less than 100 nM. Besides, the AUC in data set [3] (rat, read-out: AUC) is 100 to 1000 ng·h/mL.
As to `Cc1cc(N)nc(C)c1CNC(=O)c1cn(Cc2ccc3ncc(Cl)cc3c2)nn1` [Example 10, N-((6-amino-2,4-dimethylpyridin-3-yl)methyl)-1-((3-chloroquinolin-6-yl)methyl)-1H-1,2,3-triazole-4-carboxamide], the EC50 at human Plasma Kallikrein [1] (setting [4]) was less than 100 nM. The half-maximal inhibitory concentration (IC50) at human Plasma Kallikrein [2] is less than 100 nM. In addition, the AUC in data set [3] (rat, read-out: AUC) lay in the range of 1000 to 10000 ng·h/mL.
On to `Cc1cc(N)nc(C)c1CNC(=O)c1cn(Cc2ccc3ncc(Cl)cc3c2)cn1` [Example 3, N-((6-amino-2,4-dimethylpyridin-3-yl)methyl)-1-((3-chloroquinolin-6-yl)methyl)-1H-imidazole-4-carboxamide], for which the 50% effective concentration (EC50) at human Plasma Kallikrein [1] (setting [4]) is less than 100 nM. Besides, at human Plasma Kallikrein [2], the 50% inhibitory concentration (IC50) was less than 100 nM. For the same molecule, the AUC in data set [3] (rat, read-out: AUC) lay in the range of 100 to 1000 ng·h/mL.
With `Cc1cc(N)nc(C)c1CNC(=O)c1cnn(Cc2ccc3ncc(Cl)cc3c2)n1` [Example 21, N-((6-amino-2,4-dimethylpyridin-3-yl)methyl)-2-((3-chloroquinolin-6-yl)methyl)-2H-1,2,3-triazole-4-carboxamide], the EC50 on human Plasma Kallikrein [1] (setting [4]) was less than 100 nM. The 50% inhibitory concentration (IC50) on human Plasma Kallikrein [2] was less than 100 nM. In addition, in data set [3] (rat, read-out: AUC), the AUC fell in the range of 1000 to 10000 ng·h/mL.
As for `Cc1cc(N)nc(C)c1CNC(=O)c1cnc(Cc2ccc3ncc(Cl)cc3c2)[nH]1` [Example 5, N-((6-amino-2,4-dimethylpyridin-3-yl)methyl)-2-((3-chloroquinolin-6-yl)methyl)-1H-imidazole-5-carboxamide], the EC50 on human Plasma Kallikrein [1] (setting [4]) was less than 100 nM. Also, the IC50 at human Plasma Kallikrein [2] is less than 100 nM. Besides, in data set [3], the AUC entry was “BLQ”.
In the case of `Cc1cc(N)nc(C)c1CNC(=O)c1cn(Cc2ccc3ncc(Cl)cc3c2)c2cnc(C#N)cc12` [Example 134, N-((6-amino-2,4-dimethylpyridin-3-yl)methyl)-1-((3-chloroquinolin-6-yl)methyl)-5-cyano-1H-pyrrolo[2,3-c]pyridine-3-carboxamide], the concentration giving a half-maximal response (EC50) on human Plasma Kallikrein [1] was less than 100 nM. For the same molecule, the IC50 at human Plasma Kallikrein [2] is less than 100 nM. For the same molecule, the AUC entry in data set [3] was “BLQ”.
As for `Cc1cc(N)nc(C)c1CNC(=O)c1cn(Cc2ccc3ncc(Cl)cc3c2)nc1N` [Example 17, 3-amino-N-((6-amino-2,4-dimethylpyridin-3-yl)methyl)-1-((3-chloroquinolin-6-yl)methyl)-1H-pyrazole-4-carboxamide], the 50% effective concentration (EC50) on human Plasma Kallikrein [1] (setting [4]) is less than 100 nM. Besides, the IC50 on human Plasma Kallikrein [2] is less than 100 nM. Further, in data set [3] (rat, read-out: AUC), the AUC lay in the range of 100 to 1000 ng·h/mL.
As for `Cc1cc(N)nc(C)c1CNC(=O)c1cn(Cc2cc(C#N)c3ncc(Cl)cc3c2)nc1C#N` [Example 69, N-((6-amino-2,4-dimethylpyridin-3-yl)methyl)-1-((3-chloro-8-cyanoquinolin-6-yl)methyl)-3-cyano-1H-pyrazole-4-carboxamide], on human Plasma Kallikrein [1] (setting [4]), the concentration giving a half-maximal response (EC50) is less than 100 nM. In addition, at human Plasma Kallikrein [2], the concentration for half-maximal inhibition (IC50) was less than 100 nM. For the same molecule, in data set [3] (rat, read-out: AUC), the exposure (AUC) was less than 100 ng·h/mL.
In the case of `Cc1cc(N)nc(C)c1CNC(=O)c1cn(Cc2ccc3ncc(Cl)cc3c2)nc1C` [Example 38, N-((6-amino-2,4-dimethylpyridin-3-yl)methyl)-1-((3-chloroquinolin-6-yl)methyl)-3-methyl-1H-pyrazole-4-carboxamide], at human Plasma Kallikrein [1] (setting [4]), the concentration for a half-maximal effect (EC50) is less than 100 nM. Moreover, the half-inhibitory concentration (IC50) at human Plasma Kallikrein [2] was less than 100 nM. In addition, the exposure (AUC) in data set [3] (rat, read-out: AUC) lay in the range of 1000 to 10000 ng·h/mL.
As for `Cc1cc(N)nc(C)c1CNC(=O)c1cn(Cc2cc(C(C)(C)O)c3ncc(Cl)cc3c2)nc1C#N` [Example 58, N-((6-amino-2,4-dimethylpyridin-3-yl)methyl)-1-((3-chloro-8-(2-hydroxypropan-2-yl)quinolin-6-yl)methyl)-3-cyano-1H-pyrazole-4-carboxamide], the 50% effective concentration (EC50) on human Plasma Kallikrein [1] (setting [4]) was less than 100 nM. At human Plasma Kallikrein [2], the IC50 is less than 100 nM. Besides, in data set [3] (rat, read-out: AUC), the exposure (AUC) was less than 100 ng·h/mL.
Take `Cc1cc(N)nc(C)c1CNC(=O)c1cn(Cc2cc(F)c3ncc(Cl)cc3c2)nc1C#N` [Example 52, N-((6-amino-2,4-dimethylpyridin-3-yl)methyl)-1-((3-chloro-8-fluoroquinolin-6-yl)methyl)-3-cyano-1H-pyrazole-4-carboxamide]: the EC50 at human Plasma Kallikrein [1] (setting [4]) is less than 100 nM. On human Plasma Kallikrein [2], the IC50 was less than 100 nM. In data set [3] (rat, read-out: AUC), the AUC is 100 to 1000 ng·h/mL.
On to `Cc1cc(N)nc(C)c1CNC(=O)c1nnc(Cc2ccc3ncc(Cl)cc3c2)n1C` [Example 98, N-((6-amino-2,4-dimethylpyridin-3-yl)methyl)-5-((3-chloroquinolin-6-yl)methyl)-4-methyl-4H-1,2,4-triazole-3-carboxamide], for which the EC50 on human Plasma Kallikrein [1] (setting [4]) was less than 100 nM. Moreover, the IC50 on human Plasma Kallikrein [2] was less than 100 nM. Further, the area under the curve (AUC) in data set [3] (rat, read-out: AUC) fell in the range of 1000 to 10000 ng·h/mL.
With `Cc1cnc2ccc(Cn3cc(C(=O)NCc4ccc(N)nc4C)c(C#N)n3)cc2c1` [Example 82, N-((6-amino-2-methylpyridin-3-yl)methyl)-3-cyano-1-((3-methylquinolin-6-yl)methyl)-1H-pyrazole-4-carboxamide], the concentration giving a half-maximal response (EC50) at human Plasma Kallikrein [1] (setting [4]) is less than 100 nM. Also, the IC50 on human Plasma Kallikrein [2] is less than 100 nM. Besides, in data set [3] (rat, read-out: AUC), the area under the curve (AUC) was 100 to 1000 ng·h/mL.

(Values after patent US10301284B2, “Therapeutic inhibitory compounds” (LifeSci Pharmaceuticals, Inc., priority 2016, dated 2019).)
